Reference: patent US5753631A, “Intercellular adhesion mediators” (Cytel Corporation, priority 1995, dated 1998)

Assays:
E-Selectin = molecular target: T1, E-Selectin (Homo sapiens, UniProt P16581); experiment: Glycolipid liposome inhibition of HL-60 cell adhesion to IL-1β activated endothelial cells; format: cell-based; details: liposomes; for inhibition of adhesion of HL-60 cells to activated endothelial cells: 4° C. (FIG. 5); for reduction of HL-60 cell adhesion to activated endothelial cells: 37° C.
T1 construct: adhesion of HL-60 cells
T1 sequence (P16581 22-610): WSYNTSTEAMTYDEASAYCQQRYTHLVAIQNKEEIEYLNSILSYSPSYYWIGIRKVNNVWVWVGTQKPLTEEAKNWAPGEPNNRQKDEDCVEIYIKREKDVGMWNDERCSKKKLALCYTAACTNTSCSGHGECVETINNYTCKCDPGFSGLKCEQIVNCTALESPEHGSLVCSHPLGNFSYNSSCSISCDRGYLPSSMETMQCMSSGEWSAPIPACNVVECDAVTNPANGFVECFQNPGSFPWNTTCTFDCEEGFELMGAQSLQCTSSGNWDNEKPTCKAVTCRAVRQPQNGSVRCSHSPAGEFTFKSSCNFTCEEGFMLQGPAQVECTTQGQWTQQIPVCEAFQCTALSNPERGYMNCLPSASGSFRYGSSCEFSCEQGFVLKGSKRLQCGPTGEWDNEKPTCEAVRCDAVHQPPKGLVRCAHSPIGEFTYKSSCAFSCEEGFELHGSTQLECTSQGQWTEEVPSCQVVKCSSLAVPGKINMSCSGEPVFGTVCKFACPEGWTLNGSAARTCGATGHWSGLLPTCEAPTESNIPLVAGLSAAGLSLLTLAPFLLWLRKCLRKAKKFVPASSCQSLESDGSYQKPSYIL
Description: This Example describes the preparation of liposomes which contain various biosynthetically produced glycosphingolipids on which the terminal carbohydrate units are either SLe^x, Le^x, or similar but not identical compounds. The ability of the liposomes which contain SLe^x or SLe^x mimetics to block the binding of SLe^x -expressing HL-60 cells and LEC11 cells to endothelial cells that have been stimulated to express E-Selectin by treatment with IL-1β is shown.
Materials: The glycosphingolipids used in this experiment are shown in Table I; they were obtained from the Biomembrane Institute, Seattle, Wash., and were either purified or biosynthetically produced and characterized by NMR and mass spectrometry, as generally described in Hakomori, S. I., et al., J. Biol. Chem., 259:4672 (1984), and Fukushi Y., et al., J. Biol. Chem. 259:10511 (1984), incorporated by reference herein. […] Nonsialylated diLex was similarly synthesized using nLc6 as substrate and the cell line NCI H-69. See Holmes et al., J. Biol. Chem. 260:7619 (1985), incorporated by reference herein. SPG and SH were purified from bovine red blood cells, and nLc6 was produced by chemical removal of the terminal sialosyl residue from SH.
Liposomes containing the glycosphingolipids were formed as follows: 100 μg of glycolipid was added to 300 μg phosphatidylcholine (Sigma, egg yolk) and 500 μg cholesterol (Sigma) in chloroform-methanol (2:1) and the whole solution evaporated to dryness by N2 in 15 ml screwcap tubes.
Passage 3 HUVEC, which had been grown to confluence on a gelatin coated 48 well assay plate (Costar) were used as the source of endothelial cells. The plates were prepared as previously described. Two sets of triplicate wells were left unstimulated as controls. Fourteen sets of triplicates were stimulated with IL-1β at 30 μg/ml in a 0.5 ml volume of EGM-UV. Cells were stimulated for exactly 4 hrs. HL-60 cells and LEC11 cells were cultured as described above.
1. One 48 well Costar cluster dish containing HUVEC grown to confluence on gelatin was removed from the incubator and the medium in each well was removed with a pasteur pipette and replaced either with 0.5 ml fresh EGM-UV medium or with the same medium containing 30 μg/ml IL-1β,and the plate then returned to the incubator for 4 hrs.
2. HL-60 cells and LEC11 cells were harvested and washed in CRPMI. A viable cell count was made using trypan blue. 6×10^6 cells of each cell type were radiolabeled as follows: 3×10^6 cells of each type were placed in each of two 10 ml test tubes and 300 μl of ^51 Cr (450 μCi) (New England Nuclear) was added to each tube. The tubes were allowed to incubate 1 hr. at 37° C. with gentle agitation.
3. Radiolabeled HL-60 and LEC11 cells were washed 3× in CRPMI and pooled into one tube. […]

P-Selectin = molecular target: T2, P-Selectin (Homo sapiens, UniProt P16109); experiment: Glycolipid liposome inhibition of HL-60 cell adhesion to activated platelets; format: cell-based; details: liposomes, FIG. 7
T2 construct: endogenous in cells
T2 sequence (P16109 42-830): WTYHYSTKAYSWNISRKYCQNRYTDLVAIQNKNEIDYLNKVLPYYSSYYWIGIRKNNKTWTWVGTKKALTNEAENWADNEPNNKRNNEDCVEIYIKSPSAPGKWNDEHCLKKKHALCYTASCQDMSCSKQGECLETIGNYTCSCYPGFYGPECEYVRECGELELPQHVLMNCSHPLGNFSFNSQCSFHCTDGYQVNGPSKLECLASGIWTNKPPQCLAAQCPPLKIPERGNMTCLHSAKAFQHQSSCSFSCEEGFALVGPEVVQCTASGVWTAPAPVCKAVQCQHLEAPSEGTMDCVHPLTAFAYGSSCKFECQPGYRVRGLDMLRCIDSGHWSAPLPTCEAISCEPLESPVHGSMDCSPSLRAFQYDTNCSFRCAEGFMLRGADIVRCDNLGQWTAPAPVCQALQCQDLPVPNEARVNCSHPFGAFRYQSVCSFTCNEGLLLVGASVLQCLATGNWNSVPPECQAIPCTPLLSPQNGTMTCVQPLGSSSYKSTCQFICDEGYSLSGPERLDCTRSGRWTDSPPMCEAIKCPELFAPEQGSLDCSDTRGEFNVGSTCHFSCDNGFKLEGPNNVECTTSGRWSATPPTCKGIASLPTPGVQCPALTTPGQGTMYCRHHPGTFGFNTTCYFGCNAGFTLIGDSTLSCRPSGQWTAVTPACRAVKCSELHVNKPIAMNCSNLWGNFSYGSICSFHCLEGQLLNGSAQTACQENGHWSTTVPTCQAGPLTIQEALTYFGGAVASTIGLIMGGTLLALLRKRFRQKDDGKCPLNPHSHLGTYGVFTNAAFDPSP
Experimental: The assays generally followed the protocol described in Larsen et al., Cell 63: 467-474 (1990), which is incorporated herein by reference.
Glycosphingolipids and liposomes were prepared as described in Example IV. The platelets were prepared as described in Example V, except that blocking of Fc receptors was not performed. HL60 cells were prepared as described above.
1. 20 μl of activated platelet preparation was placed in each of 28 1.5 ml microfuge tubes (14 duplicate samples).
2. 20 μl of the diluted liposomes at […], 5 μg or 2 μg, or 20 μl of the control buffers, were added to the appropriate tube of each duplicate.
3. The platelets were incubated with the liposome preparations for 20 min. at room temp.
4. Neutrophils or HL-60 cells at 2×10^6 cells/ml were each added to one set of liposome-treated platelets. 20 μl of cell suspension were added to each tube.
5. The tubes were mixed and allowed to stand at room temperature for 20 min. Then they were applied to a hemacytometer and the cells were scored as positive (2 or more platelets attached/cell) or negative (less than 2 platelets attached/cell).

[1] = tested on: IgA immune complex induced lung injury; experiment: IgA immune complex-induced acute lung injury in the rat; format: in vivo, rat (male Long-Evans)
Experimental: Groups of rats were dosed with either vehicle, SLN-OH (100 μpg), or with SLX-OH (100 μg) […] post induction of inflammation. Each bar represents the mean of 6 animals and vertical lines represent the standard error of the mean.
Adult male (300 g) specific pathogen-free Long-Evans rats purchased from Charles River Labs (Portage, Mich.) were employed in the studies. For the induction of IgG immune complex pulmonary inflammation rabbit polyclonal IgG rich in antibody to bovine serum albumin (antiBSA) was purchased from Organon Teknika (Westchester, PA). Intraperitoneal ketamine (10 mg/Kg) was administered for anesthesia. 2.5 mg of anti-BSA in a volume of 300 μl was instilled intratracheally via a small intratracheal catheter during inspiration after surgical exposure of the trachea. Intravenous injection of 10 mg BSA was injected intravenously to generate immune complex formation. Trace amounts of ^125 I-BSA and ^51 Cr-RBC were administered with the BSA as markers for plasma and RBC extravasation respectively. Rats were sacrificed 4 h later and lung injury was assessed by the ratio of radiolabelled albumin in the lungs relative to the circulation (permeability), the ratio of RBC in the lungs relative to the circulation (hemorrhage) and the amount of myeloperoxidase activity in a lung homogenate (neutrophil accumulation). For induction of IgA immune complex induced lung injury 1.2 mg of a murine myeloma IgA protein specific for dinitrophenol (DNP) was instilled intratracheally and 3.3 mg DNP-bovine serum albumin injected intravenously. Lung injury was assessed in the same manner described for IgG-induced lung injury.
SLX-OH, Z, the non-fucosylated control oligosaccharide SLN, or an equivalent volume of PBS were injected intravenously in three equally divided doses at 2, 2.5, and 3 h following deposition of immune complexes. This schedule for injections was selected since it coincides with the time during which rapid expression of E-selectin occurs in the pulmonary vasculature.

[2] = tested on: CVF-induced acute lung injury; experiment: Cobra venom factor (CVF)-induced acute lung injury in the rat; format: in vivo; details: 200 μg prior to CVF (FIG. 16: 0.6 mg/Kg)
Experimental: Groups of rats were pretreated with either vehicle, SLN-OH (0.6 mg/Kg), or with SLX-OH (0.6 mg/Kg) 5 minutes prior to administration of either CVF or PBS. Each bar represents the mean of 6 animals and vertical lines represent the standard error of the mean.
Groups of rats were pretreated with either vehicle or Z at the indicated doses 5 minutes prior to administration of CVF or PBS. Each point represents the mean of 6 animals and vertical lines represent the standard error of the mean.
The intravenous injection of CVF produces intravascular complement activation which results in lung injury, defined as an increase in neutrophil accumulation within the lung, an increase in pulmonary vascular permeability and in lung hemorrhage. It is likely that intravascular complement activation results in the generation of a wide range of inflammatory mediators. Of particular relevance to the studies described here is generation of the split fifth complement component, C5a, which can stimulate the release of histamine from circulating basophils and tissue mast cells. […] The expression of selectins, including P-selectin, is a necessary first step in the process of leukocyte adherence to vascular endothelium.
Animals were dosed with different oligosaccharide preparations or phosphate buffered saline (PBS) five minutes before administration of cobra venom factor (20 units/Kg, i.v.). Included in this material was an aliquot of ^125 I-bovine serum albumin (0.5 μCi) and ^51 Cr labelled autologous red blood cells (0.5 μCi) for measuring plasma extravasation and hemorrhage respectively. Thirty minutes after administration of the cobra venom factor the animals were anesthetized with ketamine hydrochloride (10 mg/Kg) and exsanguinated via the posterior vena cava. The lung vasculature was then perfused through the right cardiac ventricle with 10 mL of PBS. The lungs were removed and the amount of radioactivity remaining within the tissue assessed with a gamma scintillation counter. Increased pulmonary vascular permeability was measured as the ratio of ^125 I in lung tissue compared with the amount present in 1 mL of venous blood obtained at the time of death. Lung hemorrhage was measured as the ratio of ^51 Cr in lung tissue compared with the amount present in 1 mL of venous blood obtained at the time of death. Neutrophil accumulation in lungs was determined by measuring the myeloperoxidase activity of lungs homogenized in PBS. Myeloperoxidase activity in lung supernatants was assayed by measuring the change in absorbance at 460 nm resulting from decomposition of H2 O2 in the presence of o-dianisidine

[3] = tested on: IgG immune complex-induced acute lung injury; experiment: IgG immune complex-induced acute lung injury in the rat; format: in vivo, rat (male Long-Evans); details: conclusion in words

Molecule | inhibition of adhesion of HL-60 cells to activated endothelial cells (E-Selectin) | reduction of HL-60 cell adhesion to activated endothelial cells (E-Selectin) [%] | inhibition of adhesion of HL-60 cells to activated platelets (P-Selectin) | protection assessed by vascular permeability and hemorrhage ([1]; FIG. 20, 100 μg) | effect on IgA immune complex-induced neutrophil accumulation and pathological sequelae ([1]; conclusion in words) | reduction of permeability value ([2]; P<0.001) [%] | reduction of hemorrhage ([2]; P<0.004) [%] | reduction of MPO content ([2]; P<0.006) [%] | effect on IgG immune complex-induced neutrophil accumulation / lung injury [3]
III^3 V^3 Fuc2 nLc6 [di-Le^x, reference compound] | minimal inhibition | 40 | minimal inhibition | – | – | – | – | – | –
III^3 V^3 Fuc2 VI^3 NeuAcnLc6 [S-diLe^x] | dramatically inhibited | 70 | dramatically inhibited | – | – | – | – | – | –
CC(=O)N[C@H]1[C@H]([C@H](O)[C@H](O)CO)O[C@@](O[C@H]2[C@@H](O)[C@@H](CO)O[C@@H](O[C@H]3[C@H](O[C@@H]4O[C@@H](C)[C@@H](O)[C@@H](O)[C@@H]4O)[C@@H](NC(C)=O)C(O)O[C@@H]3CO)[C@@H]2O)(C(=O)O)C[C@@H]1O (stereo partly drawn) [SLX-OH, NeuAcα2,3Gal,β1 4(Fucα1,3)GlcNAc-OH] | – | – | – | did not afford any protection from IgA immune complex induced lung injury | not IgA | 43 | 41 | 35 | blocked IgG
